Laboratory results taken from ChEMBL document CHEMBL3045734, “Synthesis of Mannich Bases of 2, 6-Disubstituted 2H-pyran-3(6H)-ones and their Miticidal Activity” (1994).

Key:
Type in all cases: functional
Tetranychus urticae [1] = assay: Miticidal activity against Tetranychus urticae (two-spotted spider mite) in kidney beans assessed as mortality under greenhouse at 600 ppm at 25 +/- 2 degC measured after 48 hr of spray
Tetranychus urticae [2] = assay: Miticidal activity against Tetranychus urticae (two-spotted spider mite) in kidney beans assessed as mortality under greenhouse at 300 ppm at 25 +/- 2 degC measured after 48 hr of spray
Tetranychus urticae [3] = assay: Miticidal activity against Tetranychus urticae (two-spotted spider mite) in kidney beans assessed as mortality under greenhouse at 100 ppm at 25 +/- 2 degC measured after 48 hr of spray
Tetranychus urticae [4] = assay: Miticidal activity against Tetranychus urticae (two-spotted spider mite) in kidney beans assessed as mortality under greenhouse at 50 ppm at 25 +/- 2 degC measured after 48 hr of spray
Tetranychus kanzawai [5] = assay: Miticidal activity against Tetranychus kanzawai in kidney beans assessed as mortality under greenhouse at 50 ppm at 25 +/- 2 degC measured after 48 hr of spray
Tetranychus kanzawai [6] = assay: Miticidal activity against Tetranychus kanzawai in kidney beans assessed as mortality under greenhouse at 300 ppm at 25 +/- 2 degC measured after 48 hr of spray
Tetranychus kanzawai [7] = assay: Miticidal activity against Tetranychus kanzawai in kidney beans assessed as mortality under greenhouse at 100 ppm at 25 +/- 2 degC measured after 48 hr of spray
Tetranychus urticae [8] = assay: Miticidal activity against Tetranychus urticae (two-spotted spider mite) in kidney beans assessed as next generation adult mites under greenhouse at 300 ppm at 25 +/- 2 degC measured after 14 days of spray relative to control
Panonychus citri [9] = assay: Miticidal activity against Panonychus citri in satsuma mandr assessed as next generation adult mites under greenhouse at 300 ppm at 25 +/- 2 degC measured after 14 days of spray relative to control
Tetranychus kanzawai [10] = assay: Miticidal activity against Tetranychus kanzawai in kidney beans assessed as next generation adult mites under greenhouse at 300 ppm at 25 +/- 2 degC measured after 14 days of spray relative to control
Panonychus citri [11] = assay: Miticidal activity against Panonychus citri in satsuma mandarin assessed as mortality under greenhouse at 50 ppm at 25 +/- 2 degC measured after 48 hr of spray
Panonychus citri [12] = assay: Miticidal activity against Panonychus citri in satsuma mandarin assessed as mortality under greenhouse at 100 ppm at 25 +/- 2 degC measured after 48 hr of spray
Panonychus citri [13] = assay: Miticidal activity against Panonychus citri in satsuma mandarin assessed as mortality under greenhouse at 300 ppm at 25 +/- 2 degC measured after 48 hr of spray

| SMILES | mortality at 600 ppm (Tetranychus urticae [1]) | mortality at 300 ppm (Tetranychus urticae [2]) | mortality at 100 ppm (Tetranychus urticae [3]) | other results |
| --- | --- | --- | --- | --- |
| CCCCCCC1OC(OC)C=C(CN2CCCCC2)C1=O (centres undefined) | 100% | 100% | 77% | mortality at 50 ppm (Tetranychus urticae [4]): 40% |
| CCCCCCCCC1OC(OC)C=C(CN2CCCCC2)C1=O (centres undefined) | 100% | 90% | 50% |  |
| CCCCCCC1OC(OC2CCCCC2)C=C(CN2CCCCC2)C1=O (centres undefined) |  | 100% | 82% | mortality at 50 ppm (Tetranychus urticae [4]): 40% |
| CCCCCCC1OC(OCc2ccccc2)C=C(CN2CCCCC2)C1=O (centres undefined) |  | 55% | 40% |  |
| CCCCCCC1OC(Oc2ccccc2)C=C(CN2CCCCC2)C1=O (centres undefined) |  | 60% | 20% |  |
| CCCCCCCCCCCCC1OC(OC)C=C(CN2CCCCC2)C1=O (centres undefined) | 90% | 65% |  |  |
| COC1C=C(CN2CCCCC2)C(=O)C(c2ccccc2)O1 (centres undefined) | 30% |  |  |  |
| CCCCCCC1OC(OC)C=C(CN(CC)CC)C1=O (centres undefined) | 60% |  |  |  |
| CCN(CC)CC1=CC(OC)OC(C2CCCCC2)C1=O (centres undefined) | 60% |  |  |  |
| CCCCCCC1OC(OC)C=C(CN(CCCC)CCCC)C1=O (centres undefined) | 75% |  |  |  |
| CCCCN(CCCC)CC1=CC(OC)OC(C2CCCCC2)C1=O (centres undefined) | 70% |  |  |  |
| CCCCCCC1OC(OC)C=C(CN2CCCC2)C1=O (centres undefined) | 70% |  |  |  |
| COC1C=C(CN2CCCC2)C(=O)C(C2CCCCC2)O1 (centres undefined) | 68% |  |  |  |
| CCCCCCC1OC(OC)C=C(CN2CCOCC2)C1=O (centres undefined) | 90% | 65% |  |  |
| COC1C=C(CN2CCOCC2)C(=O)C(C2CCCCC2)O1 (centres undefined) | 90% | 65% |  |  |
| CCCCCCC1OC(OC)C=C(CN2CCC(C)CC2)C1=O (centres undefined) | 100% | 95% | 70% |  |
| COC1C=C(CN2CCC(C)CC2)C(=O)C(C2CCCCC2)O1 (centres undefined) | 100% | 85% | 60% |  |

| SMILES | mortality at 600 ppm (Tetranychus urticae [1]) | mortality at 300 ppm (Tetranychus urticae [2]) | mortality at 100 ppm (Tetranychus urticae [3]) | other results |
| --- | --- | --- | --- | --- |
| CCCCCCC1OC(OC)C=C(CN2CCCC(C)C2)C1=O (centres undefined) | 100% | 85% | 55% |  |
| COC1C=C(CN2CCCC(C)C2)C(=O)C(C2CCCCC2)O1 (centres undefined) | 100% | 83% | 65% |  |
| CCCCCCC1OC(OC)C=C(CN2CCCCC2C)C1=O (centres undefined) | 90% | 60% |  |  |
| COC1C=C(CN2CCCCC2C)C(=O)C(C2CCCCC2)O1 (centres undefined) | 80% | 55% |  |  |
| CCCCCCC1OC(OCC)C=C(CN2CCCCC2)C1=O (centres undefined) |  | 100% | 70% | mortality at 50 ppm (Tetranychus urticae [4]): 40% |
| CCCCCCC1OC(OCCC)C=C(CN2CCCCC2)C1=O (centres undefined) |  | 100% | 100% | mortality at 50 ppm (Tetranychus urticae [4]): 70% |
| CCCCCCC1OC(OC(C)C)C=C(CN2CCCCC2)C1=O (centres undefined) |  | 100% | 100% | mortality at 50 ppm (Tetranychus kanzawai [5]): 93%; mortality at 300 ppm (Tetranychus kanzawai [6]): 100%; mortality at 100 ppm (Tetranychus kanzawai [7]): 100%; Activity (Tetranychus urticae [8]): 93%; Activity (Panonychus citri [9]): 91%; Activity (Tetranychus kanzawai [10]): 90%; mortality at 50 ppm (Panonychus citri [11]): 88%; mortality at 100 ppm (Panonychus citri [12]): 100%; mortality at 300 ppm (Panonychus citri [13]): 100%; mortality at 50 ppm (Tetranychus urticae [4]): 90% |
| CCCCCCC1OC(OCCCC)C=C(CN2CCCCC2)C1=O (centres undefined) |  | 100% | 75% | mortality at 50 ppm (Tetranychus urticae [4]): 40% |
| CCCCCCC1OC(OCC(C)C)C=C(CN2CCCCC2)C1=O (centres undefined) |  | 100% | 92% | mortality at 50 ppm (Tetranychus urticae [4]): 75% |
| CCCCCCC1OC(OC(C)(C)C)C=C(CN2CCCCC2)C1=O (centres undefined) |  | 95% | 75% | mortality at 50 ppm (Tetranychus urticae [4]): 50% |
| CCCCCCOC1C=C(CN2CCCCC2)C(=O)C(CCCCCC)O1 (centres undefined) |  | 85% | 70% | mortality at 50 ppm (Tetranychus urticae [4]): 45% |
| COC1C=C(CN2CCCCC2)C(=O)CO1 (centres undefined) | 70% | 10% |  |  |
| CCCC1OC(OC)C=C(CN2CCCCC2)C1=O (centres undefined) | 90% | 20% |  |  |
| CCCCC1OC(OC)C=C(CN2CCCCC2)C1=O (centres undefined) | 90% | 87% | 10% |  |
| CCCCCC1OC(OC)C=C(CN2CCCCC2)C1=O (centres undefined) | 100% | 95% | 20% |  |
| COC1C=C(CN2CCCCC2)C(=O)C(C2CCCCC2)O1 (centres undefined) | 100% | 100% | 68% |  |
| CCCCCCCCCCC1OC(OC)C=C(CN2CCCCC2)C1=O (centres undefined) | 95% | 70% | 20% |  |
